# Several values for one entry are separate records, joined by “and”; a condition that tells them apart may be missing. Identical values can stand only once. Toxic doses and inconclusive results are not listed.
# System: L1210 leukemia ip in BDF1 mice, survival T/C
# Experiment: NCI In Vivo Anticancer Drug Screen. Data for tumor model L1210 Leukemia (intraperitoneal) in B6D2F1 (BDF1) mice
# Conditions: endpoint: mean survival time, higher = longer survival
# Summary of the method: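 Value reflects the ratio of survival in compound-treated mice to survival in vehicle-treated controls, with both groups carrying the same transplanted tumor.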
structure (smiles),measurement,setting,value
O=C(Nc1ccc(C2=NCCN2)cc1)c1cccc(C(=O)Nc2ccc(C3=NCCN3)cc2)c1,T/C,"dose: 1.0 mg/kg/injection, schedule: Q#A X Z (ip), vehicle: methylcellulose (MC)",114 % of control
same,T/C,"dose: 1.4 mg/kg/injection, schedule: Q01DX Z (ip), vehicle: methylcellulose (MC)",104 % of control
same,T/C,"dose: 1.88 mg/kg/injection, schedule: Q01DX Z (ip), vehicle: saline",113 % of control
same,T/C,"dose: 2.0 mg/kg/injection, schedule: Q01DX Z (ip), vehicle: methylcellulose (MC)",117 % of control
same,T/C,"dose: 2.5 mg/kg/injection, schedule: Q01DX Z (iv), vehicle: other",94 % of control and 100 % of control
same,T/C,"dose: 4.0 mg/kg/injection, schedule: Q#A X Z (ip), vehicle: methylcellulose (MC)",158 % of control
same,T/C,"dose: 5.0 mg/kg/injection, schedule: Q01DX Z (iv), vehicle: other",94 % of control
same,T/C,"dose: 6.0 mg/kg/injection, schedule: Q03DX Z (ip), vehicle: methylcellulose (MC)",109 % of control
same,T/C,"dose: 6.6 mg/kg/injection, schedule: Q01DX015 (ip), vehicle: carboxymethylcellulose (CMC)",236 % of control
same,T/C,"dose: 7.5 mg/kg/injection, schedule: Q01DX009 (ip), vehicle: saline",171 % of control
same,T/C,"dose: 7.5 mg/kg/injection, schedule: Q01DX Z (ip), vehicle: methylcellulose (MC)",168 % of control
same,T/C,"dose: 8.0 mg/kg/injection, schedule: Q01DX004 (im), vehicle: olive oil, sesame oil, peanut oil",97 % of control
same,T/C,"dose: 8.0 mg/kg/injection, schedule: Q01DX Z (ip), vehicle: methylcellulose (MC)",164 % of control
same,T/C,"dose: 8.0 mg/kg/injection, schedule: Q#A X Z (ip), vehicle: methylcellulose (MC)",273 % of control
same,T/C,"dose: 9.9 mg/kg/injection, schedule: Q01DX015 (ip), vehicle: carboxymethylcellulose (CMC)",261 % of control
same,T/C,"dose: 10.0 mg/kg/injection, schedule: Q01DX Z (iv), vehicle: other",97 % of control and 100 % of control
same,T/C,"dose: 15.0 mg/kg/injection, schedule: Q01DX009 (ip), vehicle: saline",173 % of control and 206 % of control
same,T/C,"dose: 15.0 mg/kg/injection, schedule: Q01DX015 (ip), vehicle: carboxymethylcellulose (CMC)",309 % of control
same,T/C,"dose: 15.0 mg/kg/injection, schedule: Q01DX Z (ip), vehicle: carboxymethylcellulose (CMC)",212 % of control
same,T/C,"dose: 15.0 mg/kg/injection, schedule: Q01DX Z (ip), vehicle: methylcellulose (MC)",255 % of control and 369 % of control
same,T/C,"dose: 15.0 mg/kg/injection, schedule: Q01DX Z (ip), vehicle: saline",214 % of control and 264 % of control
same,T/C,"dose: 16.0 mg/kg/injection, schedule: Q01DX004 (im), vehicle: olive oil, sesame oil, peanut oil",100 % of control
same,T/C,"dose: 16.0 mg/kg/injection, schedule: Q01DX010 (ip), vehicle: saline",169 % of control
same,T/C,"dose: 16.0 mg/kg/injection, schedule: Q01DX Z (ip), vehicle: methylcellulose (MC)",331 % of control
same,T/C,"dose: 16.0 mg/kg/injection, schedule: Q#A X Z (ip), vehicle: methylcellulose (MC)",350 % of control
same,T/C,"dose: 22.5 mg/kg/injection, schedule: Q01DX015 (ip), vehicle: carboxymethylcellulose (CMC)",341 % of control
same,T/C,"dose: 24.0 mg/kg/injection, schedule: Q03DX Z (ip), vehicle: methylcellulose (MC)",167 % of control
same,T/C,"dose: 30.0 mg/kg/injection, schedule: Q01DX009 (ip), vehicle: saline",184 % of control and 240 % of control
same,T/C,"dose: 30.0 mg/kg/injection, schedule: Q01DX Z (ip), vehicle: carboxymethylcellulose (CMC)",367 % of control
same,T/C,"dose: 30.0 mg/kg/injection, schedule: Q01DX Z (ip), vehicle: methylcellulose (MC)",119 % of control and 329 % of control
same,T/C,"dose: 30.0 mg/kg/injection, schedule: Q01DX Z (ip), vehicle: saline",329 % of control
same,T/C,"dose: 32.0 mg/kg/injection, schedule: Q01DX004 (im), vehicle: olive oil, sesame oil, peanut oil",97 % of control
same,T/C,"dose: 32.0 mg/kg/injection, schedule: Q01DX010 (ip), vehicle: saline",241 % of control
same,T/C,"dose: 32.0 mg/kg/injection, schedule: Q01DX Z (ip), vehicle: methylcellulose (MC)",347 % of control
same,T/C,"dose: 32.0 mg/kg/injection, schedule: Q01DX Z (sc), vehicle: methylcellulose (MC)",205 % of control
same,T/C,"dose: 32.0 mg/kg/injection, schedule: Q#A X Z (ip), vehicle: methylcellulose (MC)",193 % of control
same,T/C,"dose: 33.75 mg/kg/injection, schedule: Q01DX015 (ip), vehicle: carboxymethylcellulose (CMC)",316 % of control
same,T/C,"dose: 48.0 mg/kg/injection, schedule: Q03DX Z (ip), vehicle: methylcellulose (MC)",267 % of control
same,T/C,"dose: 56.0 mg/kg/injection, schedule: Q07DX Z (ip), vehicle: methylcellulose (MC)",166 % of control
same,T/C,"dose: 60.0 mg/kg/injection, schedule: Q01DX009 (ip), vehicle: saline",194 % of control and 228 % of control
same,T/C,"dose: 60.0 mg/kg/injection, schedule: Q01DX Z (ip), vehicle: carboxymethylcellulose (CMC)",255 % of control
same,T/C,"dose: 60.0 mg/kg/injection, schedule: Q01DX Z (ip), vehicle: methylcellulose (MC)",106 % of control
same,T/C,"dose: 60.0 mg/kg/injection, schedule: Q01DX Z (ip), vehicle: saline",280 % of control
same,T/C,"dose: 60.0 mg/kg/injection, schedule: Q01DX Z (oral), vehicle: methylcellulose (MC)",114 % of control
same,T/C,"dose: 64.0 mg/kg/injection, schedule: Q01DX004 (im), vehicle: olive oil, sesame oil, peanut oil",114 % of control
same,T/C,"dose: 64.0 mg/kg/injection, schedule: Q01DX010 (ip), vehicle: saline",276 % of control
same,T/C,"dose: 64.0 mg/kg/injection, schedule: Q01DX Z (sc), vehicle: methylcellulose (MC)",317 % of control
same,T/C,"dose: 96.0 mg/kg/injection, schedule: Q03DX Z (ip), vehicle: methylcellulose (MC)",352 % of control
same,T/C,"dose: 100.0 mg/kg/injection, schedule: Q01DX001 (ip), vehicle: water",156 % of control
same,T/C,"dose: 112.0 mg/kg/injection, schedule: Q07DX Z (ip), vehicle: methylcellulose (MC)",243 % of control
same,T/C,"dose: 120.0 mg/kg/injection, schedule: Q01DX009 (ip), vehicle: saline",334 % of control
same,T/C,"dose: 120.0 mg/kg/injection, schedule: Q01DX Z (ip), vehicle: methylcellulose (MC)",89 % of control
same,T/C,"dose: 120.0 mg/kg/injection, schedule: Q01DX Z (ip), vehicle: saline",211 % of control
same,T/C,"dose: 120.0 mg/kg/injection, schedule: Q01DX Z (oral), vehicle: methylcellulose (MC)",91 % of control
same,T/C,"dose: 128.0 mg/kg/injection, schedule: Q01DX Z (sc), vehicle: methylcellulose (MC)",338 % of control
same,T/C,"dose: 192.0 mg/kg/injection, schedule: Q03DX Z (ip), vehicle: methylcellulose (MC)",189 % of control
same,T/C,"dose: 200.0 mg/kg/injection, schedule: Q01DX001 (ip), vehicle: water",194 % of control
same,T/C,"dose: 240.0 mg/kg/injection, schedule: Q01DX Z (oral), vehicle: methylcellulose (MC)",97 % of control
same,T/C,"dose: 256.0 mg/kg/injection, schedule: Q01DX Z (sc), vehicle: methylcellulose (MC)",341 % of control
same,T/C,"dose: 300.0 mg/kg/injection, schedule: Q01DX001 (ip), vehicle: water",247 % of control
same,T/C,"dose: 480.0 mg/kg/injection, schedule: Q01DX Z (oral), vehicle: methylcellulose (MC)",89 % of control
O=C(O)/C=C/C(=O)Nc1cccc2c1C(=O)c1ccccc1-2,T/C,"dose: 100.0 mg/kg/injection, schedule: Q04DX003 (ip), vehicle: saline with Tween-80",94 % of control
CC(=NC(CC(C)C)C(=O)O)NC(CC(C)C)C(=O)O (configuration not stated),T/C,"dose: 100.0 mg/kg/injection, schedule: Q01DX009 (ip), vehicle: Klucel (hydroxypropylcellulose) (HPC)",101 % of control
same,T/C,"dose: 200.0 mg/kg/injection, schedule: Q01DX009 (ip), vehicle: Klucel (hydroxypropylcellulose) (HPC)",110 % of control
same,T/C,"dose: 400.0 mg/kg/injection, schedule: Q01DX009 (ip), vehicle: Klucel (hydroxypropylcellulose) (HPC)",103 % of control
O=C(Nc1ccc(C(=O)O)cc1)Nc1cc(C(F)(F)F)ccc1Cl,T/C,"dose: 100.0 mg/kg/injection, schedule: Q01DX001 (ip), vehicle: carboxymethylcellulose (CMC)",93 % of control
same,T/C,"dose: 100.0 mg/kg/injection, schedule: Q01DX009 (ip), vehicle: carboxymethylcellulose (CMC)",95 % of control and 110 % of control
same,T/C,"dose: 100.0 mg/kg/injection, schedule: Q04DX002 (ip), vehicle: carboxymethylcellulose (CMC)",95 % of control and 97 % of control
same,T/C,"dose: 100.0 mg/kg/injection, schedule: Q04DX003 (ip), vehicle: carboxymethylcellulose (CMC)",94 % of control
same,T/C,"dose: 200.0 mg/kg/injection, schedule: Q01DX001 (ip), vehicle: carboxymethylcellulose (CMC)",93 % of control
same,T/C,"dose: 200.0 mg/kg/injection, schedule: Q01DX009 (ip), vehicle: carboxymethylcellulose (CMC)",100 % of control and 90 % of control
same,T/C,"dose: 200.0 mg/kg/injection, schedule: Q04DX002 (ip), vehicle: carboxymethylcellulose (CMC)",93 % of control and 97 % of control
same,T/C,"dose: 200.0 mg/kg/injection, schedule: Q04DX003 (ip), vehicle: carboxymethylcellulose (CMC)",97 % of control
same,T/C,"dose: 400.0 mg/kg/injection, schedule: Q01DX001 (ip), vehicle: carboxymethylcellulose (CMC)",93 % of control
same,T/C,"dose: 400.0 mg/kg/injection, schedule: Q01DX009 (ip), vehicle: carboxymethylcellulose (CMC)",92 % of control
same,T/C,"dose: 400.0 mg/kg/injection, schedule: Q04DX002 (ip), vehicle: carboxymethylcellulose (CMC)",96 % of control and 90 % of control
same,T/C,"dose: 400.0 mg/kg/injection, schedule: Q04DX003 (ip), vehicle: carboxymethylcellulose (CMC)",96 % of control

# Source: PubChem BioAssay AID248 (DTP/NCI, 2004)
